Publication PMC4920105, “Identification and Development of 2,3-Dihydropyrrolo[1,2-a]quinazolin-5(1H)-one Inhibitors Targeting Bromodomains within the Switch/Sucrose Nonfermenting Complex” (Journal of Medicinal Chemistry, 2016)
Several values for one entry are separate records, joined by “and”; a condition that tells them apart may be missing. Equal entries are not always repeated. Each block holds one compound with its values, some of them ahead of it.

Key:
CREBBP = target: T1, CREBBP (Homo sapiens, UniProt Q92793); assay: DSF Tm shift assay, CREBBP; type: binding; conditions: 10 μM, single measurement
T1 construct: representative bromodomains (PCAF, BRD4(1), CREBBP, TRIM33B) from other subfamilies using DSF; made in house
Protocol: (§1) Protein Expression and Purification.
(§2) Proteins were cloned, expressed, and purified as previously described.1 […]
(§3) Bromodomain DSF Tm assays were performed using a Mx3005p real-time PCR machine (Agilent) and low profile 96-well PCR plates (AB-0700, Life Technologies). Protein was buffered in 10 mM HEPES, pH 7.5, 500 mM NaCl and assayed at a concentration of 2 µM with 10 µM inhibitor concentration and 1:1000 SyproOrange (Invitrogen). Excitation and emission filters were set to 465 and 590 nm respectively. The temperature was raised by 3 °C per 1 min from 25–95 °C, and fluorescence readers were taken at each interval. Data analysis was carried out as described previously.2
(§4) AlphaScreen Displacement Assay.
(§5) AlphaScreen assays were based on a reported protocol, with minor variations.3 In place of a biotinylated peptide, a biotinylated ligand was used at 25 nM final concentration.
(§6) Isothermal Calorimetry Experiments.
(§7) Calorimetric experiments were performed on a VP-ITC micro-calorimeter (MicroCalTM, LLC Northampton, MA). Protein solutions were buffer exchanged by dialysis into buffer 20 mM Hepes pH 7.5, 150 mM NaCl, and 0.5 mM TCEP. All measurements were carried out at 293.15 K while stirring at 286 rpm. The micro syringe was loaded with protein solutions ranging from […]

PCAF = target: T2, PCAF (Homo sapiens, UniProt Q92831); assay: DSF Tm shift assay, PCAF; type: binding; conditions: 10 μM, single measurement
T2 construct: representative bromodomains (PCAF, BRD4(1), CREBBP, TRIM33B) from other subfamilies using DSF; made in house
T2 sequence (Q92831 723-827 limits assumed): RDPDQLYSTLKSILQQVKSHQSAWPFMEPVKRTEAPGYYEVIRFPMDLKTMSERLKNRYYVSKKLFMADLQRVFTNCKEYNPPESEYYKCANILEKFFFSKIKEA
Protocol: as §1, §2, §3, §4, §5, §6, §7

TRIM33B = target: T3, TRIM33B (Homo sapiens, UniProt Q9UPN9); assay: DSF Tm shift assay, TRIM33B; type: binding; conditions: 10 μM, single measurement
T3 construct: representative bromodomains (PCAF, BRD4(1), CREBBP, TRIM33B) from other subfamilies using DSF; made in house
T3 sequence (Q9UPN9 957-1063 isoform Q9UPN9-2 limits assumed): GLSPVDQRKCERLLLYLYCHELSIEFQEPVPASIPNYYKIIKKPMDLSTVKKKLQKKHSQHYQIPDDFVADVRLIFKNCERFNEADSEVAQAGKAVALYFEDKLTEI
Protocol: as §1, §2, §3, §4, §5, §6, §7

Solubility (qualitative) = type: physicochemical
BRD9A = target: T4, BRD9A (Homo sapiens, UniProt Q9H8M2); assay: DSF Tm shift assay, BRD9A; type: binding; conditions: single measurement
T4 construct: Bromodomain DSF Tm assays were performed; made in house
T4 sequence (Q9H8M2 136-240 limits assumed): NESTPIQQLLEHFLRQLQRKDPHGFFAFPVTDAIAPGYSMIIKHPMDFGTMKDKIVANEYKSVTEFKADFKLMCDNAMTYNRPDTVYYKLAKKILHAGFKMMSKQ
Protocol: as §1, §2, §3, §4, §5, §6, §7

BRPF1B = target: T5, BRPF1B (Homo sapiens, UniProt P55201); assay: DSF Tm shift assay, BRPF1B; type: binding; conditions: single measurement
T5 construct: Bromodomain DSF Tm assays were performed; made in house
T5 sequence (P55201 628-732 limits assumed): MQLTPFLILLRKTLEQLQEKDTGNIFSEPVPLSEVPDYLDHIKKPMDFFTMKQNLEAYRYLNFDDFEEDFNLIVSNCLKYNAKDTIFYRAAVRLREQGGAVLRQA
Protocol: as §1, §2, §3, §4, §5, §6, §7

CECR2A = target: T6, CECR2A (Homo sapiens, UniProt Q9BXF3); assay: DSF Tm shift assay, CECR2A; type: binding; conditions: single measurement
T6 construct: Bromodomain DSF Tm assays were performed; made in house
Protocol: as §1, §2, §3, §4, §5, §6, §7

[1] = Aqueous stability by 1H NMR in D2O time course; type: physicochemical
Excerpt: Compounds were synthesized by the routes shown in Scheme 1. Amidation of 2-aminobenzamide 2 with 4-chlorobutanoyl chloride[29] gave amide 3, which could be cyclized to the 2,3-dihydropyrrolo[1,2-a]quinazolin-5(1H)-one core 4 using potassium tert-butoxide. The isomer was confirmed on the basis of NOE correlations and subsequent crystallography. The weak nucleophilicity of the core was then exploited by reacting compound 4 with substituted N,N-dialkylformamides using Vilsmeier–Haack conditions, giving analogues incorporating nitrogen-based aliphatic side chains solely as the E regioisomer. This chemistry was unsuitable for piperazine-based formamides. For these side chains, analogues 12–15 were synthesized as single regioisomers by displacement of the dimethylamino group in 5 using cyclic secondary amines and DMAP catalysis. Due to the potential for hydrolysis of the enamine-like moiety, the aqueous stability of 5 was assessed by ^1H NMR in a D2O time course experiment and was stable for >24 h. […] Their binding to PB1(5) was assessed by the operationally simple DSF assay (Table 1). […] Six-membered aliphatic rings (10–14) were better tolerated than analogues containing six-membered aromatic side chains (see Supporting Information), likely due to their greater flexibility. However, expansion to a seven-membered ring reduced activity.

PB1(5) [2] = target: T7, PB1(5) (Homo sapiens, UniProt Q86U86); assay: Isothermal calorimetry (ITC), PB1(5) bromodomain; type: binding; conditions: for K × 10^6 (M^–1): 293.15 K
T7 construct: the fifth bromodomain of PB1 (PB1(5)); made in house

SMARCA4 = SMARCA4 (Homo sapiens, UniProt P51532); assay: Isothermal calorimetry (ITC), SMARCA4; type: binding
PB1(5) [3] = target: T7, PB1(5); assay: DSF Tm shift assay, PB1(5) bromodomain; type: binding; conditions: for PB1(5) ΔTm / ΔTm at 10 µM: 10 μM inhibitor, average of three replicates
BRD4(1) = target: T8, BRD4(1) (Homo sapiens, UniProt O60885); assay: DSF Tm shift assay, BRD4(1); type: binding; conditions: 10 μM, single measurement
T8 construct: representative bromodomains (PCAF, BRD4(1), CREBBP, TRIM33B) from other subfamilies using DSF; made in house
Protocol: as §1, §2, §3, §4, §5, §6, §7

T1 sequence (Q92793 1085-1192 limits assumed): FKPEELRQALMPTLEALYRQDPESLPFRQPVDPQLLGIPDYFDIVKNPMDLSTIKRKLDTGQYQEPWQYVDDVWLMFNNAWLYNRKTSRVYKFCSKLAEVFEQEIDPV
T6 sequence (Q9BXF3 434-538 limits assumed): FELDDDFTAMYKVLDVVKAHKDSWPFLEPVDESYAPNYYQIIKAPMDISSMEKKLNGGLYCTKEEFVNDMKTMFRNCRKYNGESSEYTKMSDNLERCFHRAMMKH
Chain of SMARCA4 (P51532 1453-1564 limits assumed): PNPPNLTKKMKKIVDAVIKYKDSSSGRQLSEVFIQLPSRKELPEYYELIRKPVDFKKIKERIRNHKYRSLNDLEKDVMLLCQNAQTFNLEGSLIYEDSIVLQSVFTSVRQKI
T7 sequence (Q86U86 653-774): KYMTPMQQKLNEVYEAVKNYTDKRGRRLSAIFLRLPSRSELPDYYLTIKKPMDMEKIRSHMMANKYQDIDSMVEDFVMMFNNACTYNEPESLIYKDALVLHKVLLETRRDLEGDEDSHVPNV

CREBBP Tm (CREBBP): 0.1 °C | PCAF Tm (PCAF): 0.8 °C | TRIM33B Tm (TRIM33B): 0.9 °C
Compound: O=c1nc2n(c3cccc(Cl)c13)CC/C2=C\N1CCOCC1 [Compound 25]

aqueous solubility (Solubility (qualitative)): poor
Compound: O=c1nc2n(c3ccccc13)CC/C2=C\c1ccoc1 [Compound 1]

BRD9A Tm (BRD9A): 0.2 °C | BRPF1B Tm (BRPF1B): 0.1 °C | CECR2A Tm (CECR2A): 0.1 °C | aqueous stability [1]: > 24 h
Compound: CN(C)/C=C1\CCn2c1nc(=O)c1ccccc12 [Compound 5, (E)-3-((Dimethylamino)methylene)-2,3-dihydropyrrolo[1,2-a]quinazolin-5(1H)-one]

TΔS (PB1(5) [2]): 2.362 kcal/mol and 2.3 kcal/mol | ΔG (PB1(5) [2]): -9.110 kcal/mol | K×10^6 (M-1) (SMARCA4): 0.49 ×10^6 M-1 | TΔS (SMARCA4): 6.446 kcal/mol | ΔG (SMARCA4): -7.620 kcal/mol | ΔH (SMARCA4): -1.174 kcal/mol
Compound: CCC(/C=C1\CCn2c1nc(=O)c1c(Cl)cccc12)CC [Compound 28]

PB1(5) ΔTm (PB1(5) [3]): loss of binding
Compound: CC(C)N(/C=C1\CCn2c1nc(=O)c1ccccc12)C(C)C [Compound 8, (E)-3-((Diisopropylamino)methylene)-2,3-dihydropyrrolo[1,2-a]quinazolin-5(1H)-one]

ΔTm at 10 µM (PB1(5) [3]): -0.6 ± 0.5 °C
Compound: COc1cccc2c1c(=O)nc1n2CCC1 [Compound 20c]

TΔS (PB1(5) [2]): 4.043 kcal/mol and 4.0 kcal/mol | ΔG (PB1(5) [2]): -9.243 kcal/mol | K × 10^6 (M^–1) (PB1(5) [2]): 7.86 × 10^6 M^–1 | BRD4(1) Tm (BRD4(1)): 1.0 °C | CREBBP Tm (CREBBP): 0.0 °C | TRIM33B Tm (TRIM33B): -0.1 °C | DMSO and aqueous solubility (Solubility (qualitative); chlorinated derivatives): greatly improved
Compound: O=c1nc2n(c3cccc(Cl)c13)CC/C2=C\N1CCCCC1 [Compound 24]

PB1(5) ΔTm (PB1(5) [3]): no interaction | ΔTm at 10 µM (PB1(5) [3]): 0 °C
Compound: O=c1nc2n(c3ccccc13)CCC2 [Compound 4, 2,3-Dihydropyrrolo[1,2-a]quinazolin-5(1H)-one]

TΔS (PB1(5) [2]): 3.018 kcal/mol and 3.0 kcal/mol | ΔG (PB1(5) [2]): -9.195 kcal/mol | K × 10^6 (M^–1) (PB1(5) [2]): 7.29 × 10^6 M^–1 | BRD4(1) Tm (BRD4(1)): 0.3 °C | CREBBP Tm (CREBBP): 0.0 °C | PCAF Tm (PCAF): 0.2 °C | TRIM33B Tm (TRIM33B): 0.2 °C
Compound: CN(C)/C=C1\CCn2c1nc(=O)c1c(Cl)cccc12 [Compound 18]

PB1(5) Tm (Supplementary Table 2) (PB1(5) [3]; average of three replicates and standard deviation): 5.8 ± 0.1 °C | BRD9A Tm (BRD9A): 0.5 °C | BRPF1B Tm (BRPF1B): 0.2 °C | CECR2A Tm (CECR2A): 0.3 °C
Compound: CN1CCN(/C=C2\CCn3c2nc(=O)c2ccccc23)CC1 [Compound 12]

ΔTm at 10 µM (PB1(5) [3]): 2.6 ± 0.3 °C
Compound: O=c1nc2n(c3cccc(Cl)c13)CCC2 [Compound 18c, 6-chloro-2,3-dihydropyrrolo[1,2-a]quinazolin-5(1H)-one]

BRD9A Tm (BRD9A): 0.8 °C | BRPF1B Tm (BRPF1B): 0.0 °C | CECR2A Tm (CECR2A): 0.1 °C
Compound: O=c1nc2n(c3ccccc13)CC/C2=C\N1CCOCC1 [Compound 11]
